Measured values reported in paper PMC3578785, “Improved BM212 MmpL3 Inhibitor Analogue Shows Efficacy in Acute Murine Model of Tuberculosis Infection” (PLoS ONE, 2013).
Values after ≈ are worked out from the molar mass of the structure shown. Where two headings read alike, the source gives them in different places.

Experiments:
in vitro [1] = conditions: plasma, pH 7.4
in vitro [2] = conditions: African green monkey
HepG2 cells = conditions: human, 48 h
in vitro [3] = assay type: in vitro ADME, human; conditions: pH 7.4; for Cli human: 0.5 µM; for half-life: human microsomes, read-out: t1/2 in human microsomes
Description: (§1) Protocol S6. Microsomal fraction stability experimental procedure.
(§2) Pooled mouse and human liver microsomes are purchased from Xenotech. Microsomes (final protein concentration 0.5 mg/mL, MgCl2 (final concentration = 5 mM) and test compound (final substrate concentration = 0.5 µM; final DMSO concentration = 0.5%) in 0.1M phosphate buffer pH 7.4 were pre-incubated at 37°C prior to the addition of NADPH (final concentration = 1 mM) to initiate the reaction. The final incubation volume was 600 µL. A control incubation was included for each compound tested where 0.1 M phosphate buffer pH 7.4 is added instead of NADPH (minus NADPH). One control compound was included with each species. All incubations were performed singularly for each test compound. Each compound was incubated for 30 minutes and samples (90 µL) of incubate were taken at 0, 5, 15, 20 and 30 min. The control (minus NADPH) was sampled at 30 min only. The reactions were stopped by the addition of sample to 200 µL Acetonitrile:Methanol 3:1 containing internal standard. The terminated samples were centrifuged at 2.500 rpm for 20 min at 4°C to precipitate the protein.
(§3) Quantitative Analysis: following protein precipitation, the samples were analyzed using specific […]
(§4) Data Analysis: from a plot of ln peak area ratio (compound peak area/internal standard peak area) against time, the gradient of the line was determined. Subsequently, half-life and intrinsic clearance were calculated using the equations below:
(§5) Elimination rate constant (k) = (- gradient)
(§6) Half life (t1/2) (min) = […]
(§7) Intrinsic Clearance (CLint) (mL/min/g protein) = […] where V=Incubation volume mL/g microsomal protein.

[4] = target: human serum albumin (HSA) (Homo sapiens, UniProt P02768); assay type: in vitro ADME; conditions: human, pH 7.4
human serum albumin (HSA), sequence (P02768 25-609): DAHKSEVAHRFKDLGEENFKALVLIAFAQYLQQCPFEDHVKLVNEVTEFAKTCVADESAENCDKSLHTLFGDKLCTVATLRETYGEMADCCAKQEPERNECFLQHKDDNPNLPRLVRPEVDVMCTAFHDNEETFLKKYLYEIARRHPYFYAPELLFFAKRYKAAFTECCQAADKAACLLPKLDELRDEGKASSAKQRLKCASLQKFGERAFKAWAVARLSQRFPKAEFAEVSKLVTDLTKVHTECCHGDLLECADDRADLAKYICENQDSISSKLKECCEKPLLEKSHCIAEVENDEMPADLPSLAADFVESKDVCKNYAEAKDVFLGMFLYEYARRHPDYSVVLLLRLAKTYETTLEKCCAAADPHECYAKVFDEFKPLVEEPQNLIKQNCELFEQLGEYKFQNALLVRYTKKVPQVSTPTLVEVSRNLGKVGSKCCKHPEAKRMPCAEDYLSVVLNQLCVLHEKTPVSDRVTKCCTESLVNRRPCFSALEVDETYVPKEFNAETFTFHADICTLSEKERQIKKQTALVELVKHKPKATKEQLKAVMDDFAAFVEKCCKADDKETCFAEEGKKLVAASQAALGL
Description: Standard physical chemical property determination methods were used. Please see the Supporting Information for details.
Protocol S4. Determination of compounds binding to human serum albumin (HSA).
The determination of compounds binding to human serum albumin (HSA) was carried out by retention time measurements using immobilized HSA HPLC columns obtained from Chiral Technologies Ltd, France. The column dimensions were 50x3 mm. The mobile phase was 50 mM ammonium acetate buffer pH 7.4 and HPLC grade 2-propanol. HPLC Method: flow rate 1.8 ml/min applying 2.5 min 2-propanol gradient up to 30%. From 2.5 min to 4.5 min the 2-propanol concentration in the mobile phase was kept at 30%. From 4.5 min to 4.6 min, the 2-propanol concentration was decreased to 0% and kept like that until the end of the gradient run which was 6 min. A calibration set of compounds was first analyzed for which plasma protein binding data were available: Warfarin, Nizatidine, Bromazepam, Carbamazepine, Budesonide, Nicardipine, Indomethacine, Piroxicam, Naproxen. The calculation of the HSA binding data expressed as %HSA was carried out as described previously.

M. tuberculosis H37Rv = experiment: microbe, parasite or virus in culture; assay type: cell-based; conditions: Mycobacterium tuberculosis, aerobic conditions
in vitro [5] = assay type: in vitro ADME, mouse; conditions: pH 7.4; for Cli mouse: 0.5 µM; for half-life: mouse microsomes, read-out: t1/2 in mouse microsomes
Description: as §1, §2, §3, §4, §5, §6, §7

SMILES | fraction unbound at 1 µM (in vitro [1]) | chromatographic logD (physchem; pH 2) | chromatographic logD (physchem; pH 7.4) | chromatographic logD (physchem; pH 10.5) | CC50 at 72 h (in vitro [2]) [µM] | Tox50, cytotoxicity in HepG2 cells (HepG2 cells) [µM] | melting point [°C] | Cli human (in vitro [3]) [mL/min/g] | half-life (in vitro [3]) [min] | HSA (%) binding [4] [%] | MIC (M. tuberculosis H37Rv) [µM] | Cli mouse (in vitro [5]) [mL/min/g] | half-life (in vitro [5]) [min]
Cc1ccc(-c2cc(CN3CCOCC3)c(C)n2-c2ccc(Cl)cc2)cc1 [Compound 10, 2-Methyl-3-[(morpholin-4-yl)-methyl]-5-[4-(methyl)phenyl]-1-[4-(chloro)phenyl]-1H-pyrrole] | 0.002 | 1.3 | 4.4 | 4.78 | 179 | 25 | 130 | <0.5 | > 30 | 97.69 | 0.6 (≈ 0.229 µg/mL) | 2.6 ± 0.1 | 25.7
COc1ccc(-n2c(-c3ccc(C(C)C)cc3)cc(CN3CCOCC3)c2C)cc1 [Compound 21, 2-Methyl-3-[(morpholin-4-yl)-methyl]-5-[4-(i-propyl)phenyl]-1-[4-(methoxy)phenyl]-1H-pyrrole] | 0.001 | 1.35 | 4.32 | 4.81 | 28.2 | 14.1 | 109 | 2.15 | > 30 | 97.07 | 0.3 (≈ 0.121 µg/mL) | 6.07 | 10.7
Cc1ccc(-n2c(-c3ccc(Cl)cc3)cc(CN3CCOCC3)c2C)cc1 [Compound 14, 2-Methyl-3-[(morpholin-4-yl)-methyl]-5-[4-(chloro)phenyl]-1-[4-(methyl)phenyl]-1H-pyrrole] | < 0.001 | 1.28 | 4.53 | 4.94 | 9.31 | 26.0 | 111 | 0.57 | > 30 | 97.62 | 1.3 (≈ 0.495 µg/mL) | 7.41 | 9.69
CCc1ccc(-c2cc(CN3CCOCC3)c(C)n2-c2ccc(OC)cc2)cc1 [Compound 19, 2-Methyl-3-[(morpholin-4-yl)-methyl]-5-[4-(ethyl)phenyl]-1-[4-(methoxy)phenyl]-1H-pyrrole] | 0.003 | 1.21 | 3.99 | 4.5 | 30 | 5.7 | 101 | 1.71 | > 30 | 96.65 | 0.3 (≈ 0.117 µg/mL) | 9.45 | < 5
Cc1c(CN2CCOCC2)cc(-c2ccc(C(C)C)cc2)n1-c1ccc(Cl)cc1 [Compound 13, 2-Methyl-3-[(morpholin-4-yl)-methyl]-5-[4-(i-propyl)phenyl]-1-[4-(chloro)phenyl]-1H-pyrrole] | < 0.001 | 1.56 | 5.13 | 5.45 | 241 | 10.0 | 135 | 0.71 | > 30 | 97.94 | 0.6 (≈ 0.245 µg/mL) |  | > 30
CSc1ccc(-c2cc(CN3CCOCC3)c(C)n2-c2ccc(F)cc2)cc1 [Compound 7, 2-Methyl-3-[(morpholin-4-yl)-methyl]-5-[4-(methylthio)phenyl]-1-[4-(fluoro)phenyl]-1H-pyrrole] | 0.004 | 1.13 | 3.82 | 4.24 | 44.3 | 32.9 | 134 | 0.56 | > 30 | 97.00 | 0.6 (≈ 0.238 µg/mL) | 7.30 | 9.27
Cc1c(CN2CCOCC2)cc(-c2ccc(Cl)cc2)n1-c1ccc(C(C)C)cc1 [Compound 17, 2-Methyl-3-[(morpholin-4-yl)-methyl]-5-[4-(chloro)phenyl]-1-[4-(i-propyl)phenyl]-1H-pyrrole] | < 0.001 | 1.67 | 5.43 | 5.7 | 175 | 14.7 | 113 | 0.5 ± 0 | > 30 | 98.19 | 0.9 (≈ 0.368 µg/mL) | 3.8 ± 0.1 | 19.6
CCCc1ccc(-n2c(-c3ccc(Cl)cc3)cc(CN3CCOCC3)c2C)cc1 [Compound 16, 2-Methyl-3-[(morpholin-4-yl)-methyl]-5-[4-(chloro)phenyl]-1-[4-(propyl)phenyl]-1H-pyrrole] | < 0.001 | 1.72 | 5.61 | 5.86 | 60.1 | 15.4 | 94 | <0.5 | > 30 | 98.24 | 0.6 (≈ 0.245 µg/mL) |  | > 30
CCCc1ccc(-c2cc(CN3CCOCC3)c(C)n2-c2ccc(OC)cc2)cc1 [Compound 20, 2-Methyl-3-[(morpholin-4-yl)-methyl]-5-[4-(propyl)phenyl]-1-[4-(methoxy)phenyl]-1H-pyrrole] | < 0.001 | 1.4 | 4.46 | 4.93 | > 256 | 14.3 | 107 | 0.61 | > 30 | 97.17 | 0.3 (≈ 0.121 µg/mL) | 5.75 | 10.9
